Reference: patent US20070042448A1, “Use of enzymes from Helicobacter pylori as therapeutical targets” (priority 2005, published 2007)
In brackets after ≈: the same amount, converted by molar mass. Like-named read-outs stand apart in the source and are kept apart here. Positions of bridges follow the written chain, without caps; N, C: chain ends. Non-standard residues stand in square brackets, D forms with d. Residues, ends and D or L forms follow the SMILES beside them. *: point of attachment. Ileψ(thiazoline)Cys = CC[C@H](C)[C@H](N)C1=N[C@H](C(=O)*)CS1; dOrn = NCCC[C@@H](N)C(=O)O

Tests used:
H. pylori strain 26695 [1] = test: Minimum inhibitory concentration (MIC) on plates, parental strain; type: cell-based, Helicobacter pylori
Description: (§1) Minimal Inhibitory Concentration (MIC). To determine the MIC for amoxicillin, suspensions of H. pylori estimated to contain […] bacteria/ml (OD600 nm of 0.1) were serially diluted and grown on plates containing various concentrations of amoxicillin. The MIC was defined as the amoxicillin concentration leading to a decrease of 3 log of CFU/ml as compared to growth without amoxicillin.
(§2) To determine the MIC of different antibiotics, suspensions of H. pylori estimated to contain 10^8 bacteria/ml (OD600 nm of 0.1) were serially diluted and grown on plates containing various concentrations of amoxicillin. The MIC was defined as the minimal concentration leading to a decrease of 3 log of CFU/ml as compared to growth without antibiotic. Minimum bactericidal concentration (MBC) for amoxicillin was done as follow. Bacteria were grown in increasing concentrations of amoxicillin in liquid culture and OD600 nm was monitored. After 18 hours, CFU/ml counts were determined for each amoxicillin concentration. MBC was defined as the concentration leading to a 3 log decrease of CFU/ml as compared as growth without amoxicillin.

[2] = test system: H. pylori 26695 amiA mutant; test: Minimum inhibitory concentration (MIC) on plates, amiA mutant; type: cell-based, Helicobacter pylori
Description: as §1, §2

human Nod2 = biological target: T1, human Nod2 (Homo sapiens, UniProt Q9HC29); test: Nod2-dependent NF-κB luciferase activation in transfected HEK293T cells; type: cell-based; conditions: HEK293T cells transfected with hNod2 and luciferase reporter; FIG. 4D
T1 construct: host or cells: HEK293T
Description: Expression Plasmids, Transient Transfections and NF-κB Activation Assays. The expression plasmid for FLAG-tagged hNod1 was from Gabriel Nuñez (University of Michigan Medical School, Ann Arbor, Mich.) and has been described previously. The expression plasmid for hNod2 was from Gilles Thomas (Foundation Jean Dausset/CEPH, Paris, France). HEK293T cells were used for transfections as described previously. Synergistic activation of NF-κB by PGs, muramyl peptides, and related compounds in cells over-expressing Nod1 or Nod2 was studied as described by Inohara et al.. Briefly, HEK293T cells were transfected overnight with 10 ng of hNod1 or 30 ng of hNod2 plus 75 ng of Ig luciferase reporter plasmid. PG samples (0.1 μg/ml) were digested with 0.25 μg/μl mutanolysin. At the same time, 0.3 μg of PG preparations or 10 pmol of muramyl-peptides were added to the cell culture medium, and synergistic NF-κB-dependent luciferase activation was measured after 24 h of co-incubation. NF-κB-dependent luciferase assays were performed in duplicate, and data reported represent at least three independent experiments. Data was standardized with positive controls: M-dipeptide for hNod2 and M-tripeptide for hNod1. hNod1 and hNod2 were activated with H. pylori PG (0.3 μg/ml) digested with M1 or Slt70 as previously described.

[3] = test system: H. pylori 26695 amiA− complemented; test: Minimum inhibitory concentration (MIC) on plates, complemented amiA mutant; type: cell-based; conditions: Helicobacter pylori, read-out: MIC (μg/ml of amoxicillin)
Description: as §2

[4] = test system: H. pylori 26695 amiA mutant; test: Minimum bactericidal concentration (MBC) in liquid culture, amiA mutant; type: cell-based, Helicobacter pylori; conditions: 18 hours, maximum concentration tested 32 μg/ml
Description: as §2

H. pylori strain 26695 [5] = test: Minimum bactericidal concentration (MBC) in liquid culture, parental strain; type: cell-based, Helicobacter pylori
Description: as §2

[6] = test system: H. pylori 26695 amiA− complemented; test: Minimum bactericidal concentration (MBC) in liquid culture, complemented amiA mutant; type: cell-based, Helicobacter pylori
Description: as §2

H. pylori strain 26695 [7] = test: Morphological transition into coccoid forms after amoxicillin (scanning electron microscopy), parental strain; type: cell-based, Helicobacter pylori; conditions: 3-4 h exposure to amoxicillin (10 μg/ml) after 18 h of growth without antibiotic
Description: (§3) Some stress signals, including amoxicillin treatment, can induce the morphological transition into coccoid forms. The inventors investigated the response of the ami A mutant to amoxicillin. First the inventors determined the MIC of amoxicillin: it was identical for the ami A mutant and the parental strain 26695 (0.06 μg/ml). After overnight culture, 10 μg/ml of amoxicillin was added to the media and after three hours of antibiotic treatment bacteria were observed by scanning electron microscopy. […] Thus, AmiA is required both for PG modifications and morphological transition.
(§4) For scanning electron microscopy (SEM), samples were washed in PBS, prefixed in 2.5% glutaraldehyde in 0.1M cacodylate buffer for 30 minutes and then rinsed in 0.2M cacodylate buffer. After post-fixation in 1% osmium tetraoxide (in 0.2M cacodylate buffer), bacteria were dehydrated in a series of ethanol concentrations. Specimens were critical-point dried using carbon dioxide, then coated with gold and examined with a JEOL JSM-6700F SEM.

[8] = test system: H. pylori 26695 amiA mutant; test: Morphological transition into coccoid forms after amoxicillin (scanning electron microscopy), amiA mutant; type: cell-based, Helicobacter pylori
Description: as §3, §4

[9] = Helicobacter pylori, other antibiotics, read-out: MIC

T1 sequence (Q9HC29 whole entry): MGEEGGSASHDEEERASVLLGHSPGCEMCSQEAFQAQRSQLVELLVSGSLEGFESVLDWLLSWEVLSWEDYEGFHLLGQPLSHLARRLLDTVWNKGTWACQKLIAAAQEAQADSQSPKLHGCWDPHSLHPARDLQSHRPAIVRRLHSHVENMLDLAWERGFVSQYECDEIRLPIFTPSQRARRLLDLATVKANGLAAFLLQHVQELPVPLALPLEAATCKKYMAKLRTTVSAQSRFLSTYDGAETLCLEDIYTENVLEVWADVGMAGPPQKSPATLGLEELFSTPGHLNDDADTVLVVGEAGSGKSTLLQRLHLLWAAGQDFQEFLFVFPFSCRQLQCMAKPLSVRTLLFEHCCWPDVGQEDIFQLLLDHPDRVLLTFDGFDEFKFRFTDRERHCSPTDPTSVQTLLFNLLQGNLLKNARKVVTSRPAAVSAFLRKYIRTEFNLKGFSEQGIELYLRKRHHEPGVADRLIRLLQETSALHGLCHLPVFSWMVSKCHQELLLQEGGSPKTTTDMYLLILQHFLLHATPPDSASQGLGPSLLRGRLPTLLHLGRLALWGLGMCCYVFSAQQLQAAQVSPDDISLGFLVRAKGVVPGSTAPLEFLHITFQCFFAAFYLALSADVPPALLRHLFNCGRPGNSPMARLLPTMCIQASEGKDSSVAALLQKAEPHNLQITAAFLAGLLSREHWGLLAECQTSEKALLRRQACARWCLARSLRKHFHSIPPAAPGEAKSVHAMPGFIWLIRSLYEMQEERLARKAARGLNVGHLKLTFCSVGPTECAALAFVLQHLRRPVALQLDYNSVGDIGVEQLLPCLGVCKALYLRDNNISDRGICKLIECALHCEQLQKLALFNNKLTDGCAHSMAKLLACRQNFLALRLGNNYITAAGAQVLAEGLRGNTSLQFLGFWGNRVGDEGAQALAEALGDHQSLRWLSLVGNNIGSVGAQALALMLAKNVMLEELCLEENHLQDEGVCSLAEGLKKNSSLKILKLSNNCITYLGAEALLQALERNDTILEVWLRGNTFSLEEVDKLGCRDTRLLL

## CC[C@H](C)[C@H](N)C1=N[C@H](C(=O)N[C@@H](CC(C)C)C(=O)N[C@H](CCC(=O)O)C(=O)N[C@H](C(=O)N[C@H]2CCCCNC(=O)[C@H](CC(N)=O)NC(=O)[C@@H](CC(=O)O)NC(=O)[C@H](Cc3cnc[nH]3)NC(=O)[C@@H](Cc3ccccc3)NC(=O)[C@H]([C@@H](C)CC)NC(=O)[C@@H](CCCN)NC2=O)[C@@H](C)CC)CS1 [Bacitracin] ({Ileψ(thiazoline)Cys}-L[dE]IK[dOrn]I[dF]H[dD]N; lactam 4-C)
H. pylori strain 26695 [1]; [9]
  MIC: > 1000 µg/mL
[2]; Helicobacter pylori
  MIC: > 1000 µg/mL

## CCn1cc(C(=O)O)c(=O)c2ccc(C)nc21 [Nalidixic acid]
H. pylori strain 26695 [1]; [9]
  MIC: 30 µg/mL (≈ 129 µM)
[2]; Helicobacter pylori
  MIC: 30 µg/mL (≈ 129 µM)

## [H]/N=C(/N)N[C@H]1[C@H](O)[C@@H](O)[C@H](O[C@@H]2O[C@@H](C)[C@](O)(C=O)[C@H]2O[C@@H]2O[C@@H](CO)[C@H](O)[C@@H](O)[C@@H]2NC)[C@@H](N/C(N)=N\[H])[C@@H]1O [Streptomycin]
H. pylori strain 26695 [1]; [9]
  MIC: 1 µg/mL (≈ 1.72 µM)
[2]; Helicobacter pylori
  MIC: 1 µg/mL (≈ 1.72 µM)

## COc1cc(Cc2cnc(N)nc2N)cc(OC)c1OC [Trimethroprime]
H. pylori strain 26695 [1]; other antibiotics
  MIC: >100 µg/mL
[2]; 26695 amiA mutant, other antibiotics
  MIC: >100 µg/mL

## Cc1ncc([N+](=O)[O-])n1CCO [Metronidazole]
H. pylori strain 26695 [1]; [9]
  MIC: 1 µg/mL (≈ 5.84 µM)
[2]; Helicobacter pylori
  MIC: 1 µg/mL (≈ 5.84 µM)

## CC(=O)NC1C(OC2C(CO)OC(O)C(NC(C)=O)C2OC(C)C(=O)NC(C)C(=O)NC(CCC(=O)O)C(=O)O)OC(CO)C(O)C1O [GM-dipeptide, N-acetyl-D-glucosminyl-β(1,4)-N-acetylmuramyl-L-Ala-D-Glu]
Human Nod2
  Nod2-dependent activation of NF-κB: detected via Nod2 in a dose dependent manner

## CN[C@H](CC(C)C)C(=O)N[C@H]1C(=O)N[C@@H](CC(N)=O)C(=O)N[C@H]2C(=O)N[C@H]3C(=O)N[C@H](C(=O)N[C@H](C(=O)O)c4cc(O)cc(O)c4-c4cc3ccc4O)[C@H](O)c3ccc(c(Cl)c3)Oc3cc2cc(c3O[C@@H]2O[C@H](CO)[C@@H](O)[C@H](O)[C@H]2O[C@H]2C[C@](C)(N)[C@H](O)[C@H](C)O2)Oc2ccc(cc2Cl)[C@H]1O [Vancomycin]
H. pylori strain 26695 [1]; [9]
  MIC: > 1000 µg/mL
[2]; Helicobacter pylori
  MIC: > 1000 µg/mL

## CC1(C)S[C@@H]2[C@H](NC(=O)[C@H](N)c3ccc(O)cc3)C(=O)N2[C@H]1C(=O)O [amoxicillin]
[3]
  MIC: 0.125 µg/mL
H. pylori strain 26695 [1]; Helicobacter pylori, 3 log decrease of CFU/ml, read-out: MIC (μg/ml of amoxicillin)
  MIC: 0.06 µg/mL
[4]
  MCB (μg/ml of amoxicillin): >32 µg/mL
H. pylori strain 26695 [5]
  Ratio MBC/MIC: 1
H. pylori strain 26695 [5]; liquid culture, 18 hours, 3 log decrease of CFU/ml
  MCB (μg/ml of amoxicillin): 0.06 µg/mL
[6]
  Ratio MBC/MIC: 2
[6]; liquid culture, 18 hours
  MCB (μg/ml of amoxicillin): 0.250 µg/mL
[2]; Helicobacter pylori, read-out: MIC (μg/ml of amoxicillin)
  MIC: 0.06 µg/mL
H. pylori strain 26695 [7]
  % of coccoids (includes U and donut forms): 56.64%
[8]; 10 μg/ml amoxicillin, three hours, after overnight culture, scanning electron microscopy
  Morphology of amiA mutant after amoxicillin: formed chains of spherical bacteria
[8]; 26695 amiA−, 3-4 h exposure to amoxicillin (10 μg/ml) after 18 h of growth without antibiotic
  % of coccoids (includes U and donut forms): 32.60%
[8]; exposure to 100 times its MIC
  Coccoid formation of amiA mutant after amoxicillin: still induced coccoid formation
